Test results taken from PubChem BioAssay (NCI).
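Following 48 hours of exposure in 96-well plates, responses at five concentrations were used to interpolate endpoints linearly. The concentration for full growth arrest is given as TGI.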

Tests used:
Test in all cases: NCI anticancer screen, dose series, 48 h
[1] = system: NCI-H23 lung
[2] = system: SK-MEL-2 melanoma
[3] = system: UO-31 renal
[4] = system: SNB-19 CNS
[5] = system: OVCAR-3 ovarian
[6] = system: UACC-62 melanoma
[7] = system: K-562 leukemia
[8] = system: SW-620 colon
[9] = system: HCT-116 colon
[10] = system: A498 renal
[11] = system: CCRF-CEM leukemia
[12] = system: HCC-2998 colon
[13] = system: CAKI-1 renal
[14] = system: HCT-15 colon
[15] = system: OVCAR-4 ovarian
[16] = system: SF-295 CNS
[17] = system: SF-268 CNS

Row | Structure (SMILES) | TGI [1] [µM] | TGI [2] [µM] | TGI [3] [µM] | TGI [4] [µM] | TGI [5] [µM] | TGI [6] [µM] | TGI [7] [µM] | TGI [8] [µM] | TGI [9] [µM] | TGI [10] [µM] | TGI [11] [µM] | TGI [12] [µM] | TGI [13] [µM] | TGI [14] [µM] | TGI [15] [µM] | TGI [16] [µM] | TGI [17] [µM]
1 | CCOC(=O)C(C)NC(=O)NC12CC3CC(CC(F)(C3)C1)C2 (stereo unspecified) | > 100 | > 100 | > 100 | > 100 | > 100 | > 100 | > 100 | > 100 | > 100 | > 100 | > 100 | > 100 |  |  |  |  | 
2 | Cc1cc(C)n(-c2nc(-n3nc(C)cc3C)nc(-n3nc(C)cc3C)n2)n1 | > 100 | > 100 | > 100 | > 100 | > 100 | > 100 | > 100 | > 100 | > 100 | > 100 | > 100 | > 100 | > 100 | > 100 | > 100 | > 100 | > 100
3 | COc1cc([C@@H]2c3cc4c(cc3[C@@H](NCc3ccccc3F)C3COC(=O)[C@@H]32)OCO4)cc(OC)c1O (stereo partly specified) | 7.5 | 49.8 | 17.3 | 60.5 | 40.9 | 4.43 | 35.4 | 39.1 | 21.9 | 19.7 | > 100 | 28.3 | 44.2 | 22.4 | > 100 | > 100 | > 100
4 | Cc1cc(Cl)ccc1NC(=O)/C(=N\NC(C)(C)C)C(C#N)c1nc(-c2ccc([N+](=O)[O-])cc2)cs1 (stereo unspecified) | > 100 | > 100 | > 100 | > 100 | > 100 | > 100 | > 100 | > 100 | > 100 | > 100 | > 100 | > 100 | > 100 | > 100 | > 100 | > 100 | > 100
5 | Cn1c(-c2ccccc2)cc(-c2ccc3c(c2)OCO3)c1-c1ccsc1 | > 100 | > 100 | > 100 | > 100 | > 100 | > 100 | > 100 | > 100 | > 100 | > 100 | > 100 | > 100 | > 100 | > 100 | > 100 | > 100 | > 100
6 | CSc1nc(-c2ccccc2)[nH]c(=O)n1 | > 100 | > 100 | > 100 | > 100 | > 100 | > 100 |  | > 100 | > 100 | > 100 | > 100 | > 100 | > 100 | > 100 | > 100 | > 100 | > 100
7 | O=S(=O)(CC(Cl)c1ccccc1)c1nc2ccccc2s1 (stereo unspecified) | 25.5 | 37.4 | 29.4 | 32.3 | 23.2 | 40 | 7.43 | 20.7 | 23.6 | 35.1 | 4.28 | 31.8 | 4.4 | 21.9 | 51.1 | 32.6 | 33.1
8 | C/C(=N\O)c1ccc(OCc2cc(C(F)(F)F)cc(C(F)(F)F)c2)cc1 | > 100 | > 100 | > 100 | > 100 | > 100 |  | > 100 | > 100 | > 100 | > 100 | 89.3 | 98.4 | > 100 | > 100 | > 100 | > 100 | > 100
9 | Cc1cccc(N=Nc2c(C)nn(C(=O)CC(=O)Nc3ccc(Cl)cc3)c2C)c1 | > 100 | > 100 | > 100 | > 100 | > 100 | > 100 |  | > 100 | > 100 | > 100 | 98.6 | > 100 | > 100 | > 100 | > 100 | > 100 | > 100
10 | NC1CCN(c2nc3ccccc3c3c2CCCC3)CC1 | 28.2 | 10.5 | 12.2 | 22.7 | 28.1 | 3.8 | 6.58 | 12.7 | 14.4 | 22.7 | 15.2 | 3.2 | 19.1 | 17.7 | 4.63 | 26.4 | 33
11 | O=C1/C(=C/c2ccccc2Cl)COc2ccc(Br)cc21 | > 100 | > 100 | > 100 |  | > 100 |  | 31.7 | > 100 | > 100 | > 100 | > 100 | > 100 |  |  |  | > 100 | > 100
12 | C/C(O)=C(/C=N/C(=S)Nc1ccccc1)C(=O)Nc1ccccc1C | > 100 | > 100 | > 100 | > 100 | > 100 | > 100 | > 100 | > 100 | > 100 | > 100 | > 100 | > 100 | > 100 | > 100 | > 100 | > 100 | > 100
13 | COc1ccc(OC2(c3cc(OC)ccc3OC)OC(=O)c3ccccc32)cc1 (stereo unspecified) | > 100 | > 100 | > 100 | > 100 | > 100 | > 100 | > 100 | > 100 | > 100 | > 100 | > 100 | > 100 | > 100 | > 100 | > 100 | > 100 | > 100
14 | N#C/C(c1nc2ccccc2[nH]1)=c1\s/c(=C/c2ccccc2)c(=O)n1-c1ccccc1 | > 100 | > 100 | > 100 | > 100 | > 100 | > 100 | > 100 | > 100 | > 100 | > 100 | > 100 | > 100 | > 100 | > 100 | > 100 |  | > 100
15 | COc1ccc2c(=O)c3ccoc3[nH]c2c1 | > 100 | > 100 | > 100 | > 100 |  | > 100 | > 100 | > 100 | > 100 | > 100 | > 100 | > 100 | > 100 | > 100 | > 100 | > 100 | > 100
16 | Cc1[nH]c2ncn3[nH]c(=S)nc3c2c1Cc1ccccc1 | > 100 | > 100 | > 100 | > 100 | > 100 | > 100 |  | > 100 | > 100 | > 100 | > 100 | > 100 | > 100 | > 100 | > 100 | > 100 | > 100
17 | COCN1C(=O)[C@@H]2C[C@@H](O)CN2C(=O)c2ccccc21 | > 100 | > 100 | > 100 | > 100 |  | > 100 | > 100 | > 100 | > 100 | > 100 | > 100 | > 100 | > 100 | > 100 | > 100 | > 100 | > 100
18 | COC(=O)C1(Cc2ccccc2)Cc2ccccc2C1O (stereo unspecified) | > 100 |  | > 100 |  | > 100 | > 100 | > 100 | > 100 | > 100 | > 100 | > 100 | > 100 | > 100 | > 100 | > 100 | > 100 | > 100
19 | CN(C)c1ccc(N=C2N=C(Nc3ccccc3)C(=Nc3ccccc3)S2)cc1 | > 100 | > 100 |  | > 100 | > 100 | > 100 |  | > 100 | > 100 | > 100 | > 100 | > 100 | > 100 | > 100 | > 100 | > 100 | > 100
20 | Cc1ccc(S(=O)(=O)C2=Cc3ccccc3C2(O)c2ccccc2)cc1 (stereo unspecified) | > 100 | 31.4 |  | > 100 |  |  | 76.5 | > 100 | > 100 | > 10 | 38.1 | 91.3 |  | > 100 |  | 76.9 | > 100
21 | Cc1ccc(S(=O)(=O)N(CCN)c2cc3c4c(c2)Oc2cccc5c2C4c2c(cccc2O3)O5)cc1 | > 100 | 47.7 | > 100 | > 100 | 42.2 | > 100 | > 100 | > 100 | 30.5 | > 100 | 57.9 | > 100 |  | > 100 |  | 54.5 | 27.4
22 | COc1cccc([C@@H]2C/C(=N\NC(=O)C(=O)N[C@@H](C)c3ccccc3)c3ccccc3N2)c1 |  | > 100 | > 100 | > 100 | > 100 | 38.4 | > 100 | > 100 | > 100 | > 100 | > 100 | > 100 | > 100 | > 100 | > 100 | > 100 | > 100
23 | COC(=O)CN(CC(=O)NCCNC(=O)OC(C)(C)C)C1CCCCC1N(CC(=O)OC)CC(=O)OC (stereo unspecified) | > 100 | > 100 | > 100 | > 100 | > 100 | > 100 | > 100 | > 100 | > 100 | > 100 | > 100 | > 100 | > 100 | > 100 |  | > 100 | > 100
24 | Oc1ccc(Br)cc1C=Nc1c(NC2CCCCC2)oc2ccc(Br)cc12 | 56 |  | > 100 | > 100 | 68.6 | > 100 | 29.2 | > 100 | 28.7 | > 100 | 20.2 | > 100 | > 100 | > 100 | > 100 | > 100 | > 100
25 | FC(F)(F)c1ccc2c(-c3cc[nH]c3)ccnc2c1 | > 100 | > 100 | 48.3 | 58.8 | 88 | > 100 | > 100 | > 100 | > 100 | 51.8 | > 100 | > 100 | 94 | > 100 | > 100 | 84.1 | 
26 | O=C1c2ccccc2CC12Cc1cc3c(cc1C2)CCC3 | > 100 | > 100 | > 100 | > 100 | > 100 |  | > 100 | > 100 | > 100 | > 100 | > 100 | > 100 | > 100 | > 100 | > 100 | > 100 | > 100
27 | NC(=O)c1ncn(C2C=CC(CP(=O)(O)O)C2)c1N (stereo unspecified) | > 100 | > 100 | > 100 | > 100 | > 100 | > 100 | > 100 | > 100 | > 100 |  | > 100 | > 100 | > 100 | > 100 | > 100 | > 100 | > 100
28 | COc1ccc(C2(CC(C)C)CCNC2)cc1OC (stereo unspecified) | > 100 | > 100 | > 100 | > 100 |  | > 100 | > 100 | > 100 | > 100 | > 100 | > 100 | 38.5 | > 100 | > 100 | > 100 | > 100 | > 100
29 | CC(C)CC(=O)CC(C)[C@]1(CCCOCc2ccccc2)C(=O)N2CCC3(C[C@@]24CCC[C@H]41)OCCO3 (stereo partly specified) | > 10 | > 10 | > 10 | > 10 | > 10 |  | > 10 | > 10 |  | > 10 | > 10 | > 10 | > 10 | > 10 | > 10 | > 10 | > 10
